{"source": "patent US9193756B2", "about": "“Adrenomedullin production enhancer” (National University Corporation ASAHIKAWA MEDICAL COLLEGE, priority 2008, dated 2015)", "key": {"distal colon blood flow [1]": {"test_system": "distal colon blood flow", "assay": "Blood flow-increasing effects of components in crude drugs (2): 6-shogaol", "type": "in vivo, rat", "conditions": "for Rate of increase in VC: into the colon, mg/kg: 6-shogaol 2, ginsenoside Rb1 1", "procedure": "Male SD rats (8 to 10 weeks of age) were used. 6-Shogaol was added to a 1% aqueous solution of Tween 80 to obtain a concentration of 0.4 mg/mL, and the resulting solution was used as a test specimen. Furthermore, ginsenoside Rb1 and 6-shogaol were added to a 1% aqueous solution of Tween 80 at concentrations of 0.2 mg/mL and 0.4 mg/mL, respectively, to prepare test specimens. After preliminarily placing an 18 G Surflo indwelling needle inserted through the caecum, 5 mL/kg portions of test specimens which had been kept warm at 37° C. were administered into the colon 0.5 to 1 hour later, by which time baseline blood flow had stabilized. A control group was administered 1% aqueous solution of Tween 80.\n(§1) A polyethylene tube with an inner diameter of 0.8 mm was inserted through the left common carotid artery of an anesthetized rat, and the tip was left indwelling in the left ventricle. A tracheal cannula was placed indwelling in the trachea and connected to a respirator (SN-480-7); artificial respiration was then performed at a frequency of 60 RPM. Body temperature was maintained at 37±0.5° C. by a temperature controller (NS-TC10)."}, "distal colon blood flow [2]": {"test_system": "distal colon blood flow", "assay": "Blood flow-increasing effects of components in crude drugs (1): hydroxysanshool, ginsenosides", "type": "in vivo, rat", "conditions": "for Rate of increase in VC: into the colon, mg/kg: H-sanshool 0.3, ginseng 30, ginsenoside Rb1 1, ginsenoside Rg1 1, mean", "procedure": "Male SD rats (8 to 10 weeks of age, body weight 240 to 360 g) were used (n=2 to 6). Hydroxy-β-sanshool, ginsenoside Rb1, or ginsenoside Rg1 was added to a 1% aqueous solution of Tween 80 to obtain concentrations of 0.06 mg/mL, 0.2 mg/mL, and 0.2 mg/mL, respectively, and the resulting solutions were used as the respective test specimens for administration of individual crude drug components. Furthermore, test specimens for the administration of hydroxysanshool with a ginseng extract, ginsenoside Rb1, or ginsenoside Rg1 in combination were prepared by adding, to a 1% aqueous solution of Tween 80, hydroxysanshool at a concentration of 0.06 mg/mL, and a powdered ginseng extract, ginsenoside Rb1, or ginsenoside Rg1 at a concentration of 6 mg/mL, 0.2 mg/mL, or 0.2 mg/mL, respectively. After preliminarily placing an 18 G Surflo indwelling needle inserted through the caecum, 5 mL/kg portions of test specimens which had been kept warm at 37° C. were administered into the colon 0.5 to 1 hour later, by which time baseline blood flow had stabilized. A control group was administered a 1% aqueous solution of Tween 80.\nas §1, with “(NS-TC10). […] The results of measurement are expressed as the mean value±standard error (S.E.M.). Comparison of effects was performed by one-way analysis of variance (ANOVA), followed by the Scheffe multiple comparison test. A risk rate of 5% or less was employed as the significance level.” for “(NS-TC10).”"}}}
{"smiles": "CCCCC/C=C/C(=O)CCc1ccc(O)c(OC)c1", "note": "[6-Shogaol, 6-shogaol]", "values": [{"measurement": "Rate of increase in VC", "setting": "distal colon blood flow [1]; 15 min", "result": 58.32, "unit": "%"}, {"measurement": "Rate of increase in VC", "setting": "distal colon blood flow [1]; 30 min", "result": 61.20, "unit": "%"}, {"measurement": "Rate of increase in VC", "setting": "distal colon blood flow [1]; 45 min", "result": 53.07, "unit": "%"}, {"measurement": "Rate of increase in VC", "setting": "distal colon blood flow [1]; 60 min", "result": 42.55, "unit": "%"}, {"measurement": "Rate of increase in VC", "setting": "distal colon blood flow [1]; 75 min", "result": 46.68, "unit": "%"}, {"measurement": "Rate of increase in VC", "setting": "distal colon blood flow [1]; 90 min", "result": 32.92, "unit": "%"}, {"measurement": "Blood flow increase (in words)", "setting": "distal colon blood flow [1]; Example 5, administration into the colon", "result": "induced an increase in blood flow"}, {"measurement": "Time of peak increase in blood flow", "setting": "distal colon blood flow [1]; after administration into the colon", "result": 30, "unit": "min"}]}
{"smiles": "CC(C)=CCC[C@](C)(O[C@@H]1O[C@H](CO[C@@H]2O[C@H](CO)[C@@H](O)[C@H](O)[C@H]2O)[C@@H](O)[C@H](O)[C@H]1O)[C@H]1CC[C@]2(C)[C@@H]1[C@H](O)C[C@@H]1[C@@]3(C)CC[C@H](O[C@@H]4O[C@H](CO)[C@@H](O)[C@H](O)[C@H]4O[C@@H]4O[C@H](CO)[C@@H](O)[C@H](O)[C@H]4O)C(C)(C)[C@@H]3CC[C@]12C", "note": "[Ginsenoside Rb1, ginsenoside Rb1]", "values": [{"measurement": "Rate of increase in VC", "setting": "distal colon blood flow [2]; 15 min", "result": 11.72, "unit": "%"}, {"measurement": "Rate of increase in VC", "setting": "distal colon blood flow [2]; 30 min", "result": 18.87, "unit": "%"}, {"measurement": "Rate of increase in VC", "setting": "distal colon blood flow [2]; 45 min", "result": 60.21, "unit": "%"}, {"measurement": "Rate of increase in VC", "setting": "distal colon blood flow [2]; 60 min", "result": 26.20, "unit": "%"}, {"measurement": "Rate of increase in VC", "setting": "distal colon blood flow [2]; 75 min", "result": 40.81, "unit": "%"}, {"measurement": "Rate of increase in VC", "setting": "distal colon blood flow [2]; 90 min", "result": 19.98, "unit": "%"}]}
{"smiles": "CC(C)=CCC[C@](C)(O[C@@H]1O[C@H](CO)[C@@H](O)[C@H](O)[C@H]1O)[C@H]1CC[C@]2(C)[C@@H]1[C@H](O)C[C@@H]1[C@@]3(C)CC[C@H](O)C(C)(C)[C@@H]3[C@@H](O[C@@H]3O[C@H](CO)[C@@H](O)[C@H](O)[C@H]3O)C[C@]12C", "note": "[Ginsenoside Rg1, ginsenoside Rg1]", "values": [{"measurement": "Rate of increase in VC", "setting": "distal colon blood flow [2]; 15 min", "result": "−10.83", "unit": "%"}, {"measurement": "Rate of increase in VC", "setting": "distal colon blood flow [2]; 30 min", "result": 5.84, "unit": "%"}, {"measurement": "Rate of increase in VC", "setting": "distal colon blood flow [2]; 45 min", "result": 16.29, "unit": "%"}, {"measurement": "Rate of increase in VC", "setting": "distal colon blood flow [2]; 60 min", "result": 10.92, "unit": "%"}, {"measurement": "Rate of increase in VC", "setting": "distal colon blood flow [2]; 75 min", "result": 12.25, "unit": "%"}, {"measurement": "Rate of increase in VC", "setting": "distal colon blood flow [2]; 90 min", "result": 18.11, "unit": "%"}]}
{"smiles": "C/C=C/C=C/C=C/CC/C=C/C(=O)NCC(C)(C)O", "note": "[H-sanshool, Hydroxy-β-sanshool]", "values": [{"measurement": "Rate of increase in VC", "setting": "distal colon blood flow [2]; 15 min", "result": 3.89, "unit": "%"}, {"measurement": "Rate of increase in VC", "setting": "distal colon blood flow [2]; 30 min", "result": 5.79, "unit": "%"}, {"measurement": "Rate of increase in VC", "setting": "distal colon blood flow [2]; 45 min", "result": 2.09, "unit": "%"}, {"measurement": "Rate of increase in VC", "setting": "distal colon blood flow [2]; 60 min", "result": 9.46, "unit": "%"}, {"measurement": "Rate of increase in VC", "setting": "distal colon blood flow [2]; 75 min", "result": 8.58, "unit": "%"}, {"measurement": "Rate of increase in VC", "setting": "distal colon blood flow [2]; 90 min", "result": 4.19, "unit": "%"}, {"measurement": "Blood flow / VC increase (in words)", "setting": "distal colon blood flow [2]; Example 4, administration into the colon", "result": "did not increase blood flow"}]}
